Laboratory results as given in patent US11414449B2, “Hydrated and anhydrous polymorphs of 2′-O- fucosyllactose and their production methods” (BASF SE, priority 2012, dated 2022).
Values belong to the compound of their own block, whether it stands above or below them.

Legend:
Assay type in all cases: physicochemical
[1] = re-analysis of example batches after storage (KF, LOD)
Description: (§1) Determination of water content in the product based on a specific oxidation-reduction reaction between the water present in the sample and the Karl Fischer reagent.
(§2) About 200 mg of the 2′-FL were weighed into the appropriate container, the balance was set to zero and the substance transferred into the previously dehydrated cell. The empty container was placed on the pan of the balance to determine the exact value of the substance transferred into the cell. Set the measured weight into the formula: % H2O=V×T×F/PC
(§3) Gravimetric method with heating of the sample using a halogen lamp

[2] = accelerated stability of Polymorph A, water content by Karl-Fischer over time; settings: accelerated stability (75 ± 5% RH)
Description: as §1, §2

[3] = stability studies of Polymorph A (accelerated and 25°C/60% RH): KF, loss on drying, XRPD after storage; settings: 40°±2° C., 75±5% RH and 25°±2° C., 60±5% RH
Description: In particular Polymorph A, was subjected to studies of stability both accelerated at 40°±2° C.; 75±5% RH and at 25°±2° C., 60±5% RH.
In particular, the percentage of water takes values between 5% and 7%, preferably between 5.5% and 6.5%, still more preferably between 5.7% and 6.2% (See Table 1).
as §1, §3

- KF after 6 months ([1]; after 6 months): 6.00%
- LOD after 6 months (Method 2) ([1]; after 6 months, LOD Method 2): 2.17%
Structure (SMILES): C[C@@H]1OC(O[C@H]2[C@H](O[C@H]3[C@H](O)[C@@H](O)C(O)O[C@@H]3CO)O[C@H](CO)[C@H](O)[C@@H]2O)[C@@H](O)[C@H](O)[C@@H]1O (mixture of isomers) [Example 4, 2′-O-fucosyllactose]

- KF after 2 months ([1]; after 2 months): 0.34%
Structure (SMILES): C[C@@H]1OC(O[C@H]2[C@H](O[C@H]3[C@H](O)[C@@H](O)C(O)O[C@@H]3CO)O[C@H](CO)[C@H](O)[C@@H]2O)[C@@H](O)[C@H](O)[C@@H]1O (mixture of isomers) [Example 19, 2′-O-fucosyllactose]

- KF after 10 days in a petri dish ([1]; after 10 days in a petri dish): 0.67%
Structure (SMILES): C[C@@H]1OC(O[C@H]2[C@H](O[C@H]3[C@H](O)[C@@H](O)C(O)O[C@@H]3CO)O[C@H](CO)[C@H](O)[C@@H]2O)[C@@H](O)[C@H](O)[C@@H]1O (mixture of isomers) [Example 21, 2′-O-fucosyllactose]

- KF % ([2]; time 0 months): 4.2%
- KF % ([2]; time 1 month): 6.0%
- KF % ([2]; time 2 months): 6.0%
- KF % ([2]; time 3 months): 5.7%
- KF % ([2]; time 4 months): 5.9%
- KF % ([2]; time 5 months): 6.0%
- KF % ([2]; time 6 months): 6.0%
- humidity uptake in stability studies (KF trend) ([3]; 1-3 months): tends to adsorb humidity immediately
Structure (SMILES): C[C@@H]1OC(O[C@H]2[C@H](O[C@H]3[C@H](O)[C@@H](O)C(O)O[C@@H]3CO)O[C@H](CO)[C@H](O)[C@@H]2O)[C@@H](O)[C@H](O)[C@@H]1O (mixture of isomers) [Polymorph A, 2′-O-fucosyllactose]
- XRPD spectrum of stored samples (crystal form retention) [3]: continues to show the characteristic peaks of Polymorph A
